Question: What does the source list for `c1ccc2oc(CSCc3nc4ccccc4o3)nc2c1`?
Answer: solubility (mole fraction) (in chlorobenzene, 274.85 K): 0.00424; solubility (mole fraction) (in chlorobenzene, 278.15 K): 0.00514; solubility (mole fraction) (in chlorobenzene, 283.15 K): 0.00684; solubility (mole fraction) (in chlorobenzene, 287.95 K): 0.00889; solubility (mole fraction) (in chlorobenzene, 292.95 K): 0.0119; solubility (mole fraction) (in chlorobenzene, 298.35 K): 0.0157; solubility (mole fraction) (in chlorobenzene, 303.25 K): 0.0205; solubility (mole fraction) (in chlorobenzene, 308.15 K): 0.0262; solubility (mole fraction) (in chlorobenzene, 313.25 K): 0.0341; solubility (mole fraction) (in chlorobenzene, 318.05 K): 0.0427; solubility (mole fraction) (in ethanol, 274.15 K): 0.00741; solubility (mole fraction) (in ethanol, 278.15 K): 0.00978; solubility (mole fraction) (in ethanol, 283.15 K): 0.014; solubility (mole fraction) (in ethanol, 288.35 K): 0.02; solubility (mole fraction) (in ethanol, 291.15 K): 0.0236; solubility (mole fraction) (in ethanol, 293.15 K): 0.0279; solubility (mole fraction) (in ethanol, 295.55 K): 0.0318; solubility (mole fraction) (in ethanol, 298.15 K): 0.0377; solubility (mole fraction) (in ethanol, 300.25 K): 0.0435; solubility (mole fraction) (in ethanol, 302.95 K): 0.052; solubility (mole fraction) (in ethanol, 305.15 K): 0.0578; solubility (mole fraction) (in ethanol, 308.15 K): 0.0704; solubility (mole fraction) (in isopropanol, 278.15 K): 0.00231; solubility (mole fraction) (in isopropanol, 283.15 K): 0.00333; solubility (mole fraction) (in isopropanol, 289.15 K): 0.00523; solubility (mole fraction) (in isopropanol, 293.15 K): 0.00703; solubility (mole fraction) (in isopropanol, 298.15 K): 0.0105; solubility (mole fraction) (in isopropanol, 303.15 K): 0.014; solubility (mole fraction) (in isopropanol, 308.15 K): 0.0194; solubility (mole fraction) (in isopropanol, 313.15 K): 0.0268; solubility (mole fraction) (in isopropanol, 318.15 K): 0.0372; solubility (mole fraction) (in isopropanol, 323.15 K): 0.051; solubility (mole fraction) (in n-butanol, 278.35 K): 0.00349; solubility (mole fraction) (in n-butanol, 283.15 K): 0.00494; solubility (mole fraction) (in n-butanol, 288.15 K): 0.00698; solubility (mole fraction) (in n-butanol, 293.25 K): 0.00986; solubility (mole fraction) (in n-butanol, 298.15 K): 0.0142; solubility (mole fraction) (in n-butanol, 303.25 K): 0.0199; solubility (mole fraction) (in n-butanol, 308.15 K): 0.0271; solubility (mole fraction) (in n-butanol, 313.25 K): 0.0372; solubility (mole fraction) (in n-butanol, 318.15 K): 0.0516; solubility (mole fraction) (in n-butanol, 323.15 K): 0.0679; solubility (mole fraction) (in o-xylene, 273.35 K): 0.000297; solubility (mole fraction) (in o-xylene, 278.15 K): 0.000431; solubility (mole fraction) (in o-xylene, 283.15 K): 0.00064; solubility (mole fraction) (in o-xylene, 287.95 K): 0.000899; solubility (mole fraction) (in o-xylene, 293.05 K): 0.00138; solubility (mole fraction) (in o-xylene, 298.15 K): 0.00203; solubility (mole fraction) (in o-xylene, 303.15 K): 0.00305; solubility (mole fraction) (in o-xylene, 308.35 K): 0.00443; solubility (mole fraction) (in o-xylene, 313.15 K): 0.00656; solubility (mole fraction) (in o-xylene, 318.15 K): 0.00904; solubility (mole fraction) (in toluene, 274.15 K): 0.000608; solubility (mole fraction) (in toluene, 278.15 K): 0.000971; solubility (mole fraction) (in toluene, 283.15 K): 0.00176; solubility (mole fraction) (in toluene, 288.15 K): 0.00306; solubility (mole fraction) (in toluene, 293.15 K): 0.00522; solubility (mole fraction) (in toluene, 298.15 K): 0.00861; solubility (mole fraction) (in toluene, 303.15 K): 0.0139; solubility (mole fraction) (in toluene, 308.15 K): 0.024; solubility (mole fraction) (in toluene, 313.25 K): 0.0292; solubility (mole fraction) (in toluene, 318.15 K): 0.0413
